Series [1] is described as follows: Compatibility study of carbidopa-levodopa granule raw materials and excipients at 40°C/75% RH. It is filed as physicochemical. The source says: (§1) After preparation into the formulation, there was a risk of exceeding the limit for related substances in terms of stability.
Series [2] can be described thus: Compatibility study of voriconazole granule raw material and excipients at 40°C/75% RH. Format: physicochemical.
Source text: as §1

Regarding `C[C@@](Cc1ccc(O)c(O)c1)(NN)C(=O)O` [Carbidopa], the Appearance entry in series [1] was “No change”. Moreover, the “Total impurities (%)” value was found to be 0.10% in series [1] (0 Days), 0.08% in series [1] (14 Days) and 0.07% in series [1] (28 Days).

Turning to `N[C@@H](Cc1ccc(O)c(O)c1)C(=O)O` [Levodopa], the Appearance result in series [1] was “No change”. In addition, the “Total impurities (%)” value is reported as “Not detected” in series [1] (0 Days), 0.03% in series [1] (14 Days) and 0.07% in series [1] (28 Days).

With `C[C@@H](c1ncncc1F)[C@](O)(Cn1cncn1)c1ccc(F)cc1F` [Voriconazole], the Appearance result in series [2] is on record as “No change”. Besides, the Total impurities (%) in series [2] (0 Days), in series [2] (14 Days) and in series [2] (28 Days) was 0.01% each time.

The record behind these values is patent EP4740962A1, “PHARMACEUTICAL COMPOSITION, FORMULATION CONTAINING PHARMACEUTICAL COMPOSITION, KIT CONTAINING PHARMACEUTICAL COMPOSITION, PREPARATION METHOD FOR PHARMACEUTICAL COMPOSITION, AND USE OF PHARMACEUTICAL COMPOSITION” (Shanghai WD Pharmaceutical Co., Ltd, priority 2023, dated 2025).
